The conditions of data set [1]: solvents in which the substance dissolves, in words.
The test system of data set [2] is Botrytis cinerea 47. The data set is described as follows: MIC (MHK) determination. It counts as cell-based. As to conditions: read-out: MHK-Werte.
Data set [3] deals with Trichophyton mentagrophytes. The data set is described as follows: MIC (MHK) determination. The class given is cell-based. To be noted: read-out: MHK-Werte.
For data set [4], the system named is Fusarium culmorum 100. Description: MIC (MHK) determination. It counts as cell-based. As to conditions: read-out: MHK-Werte.
The test system of data set [5] is Staph. aureus 209 P. Description: MIC (MHK) determination. It counts as cell-based. To be noted: Staphylococcus aureus, read-out: MHK-Werte.
Data set [6] relates to Hefe 5060. Description: MIC (MHK) determination. The class given is cell-based. As to conditions: read-out: MHK-Werte.
Data set [7] concerns Saccharomyces cerevisiae. Description: MIC (MHK) determination. To be noted: read-out: MHK-Werte. The class given is cell-based.
Data set [8] relates to Candida albicans. The data set is described as follows: MIC (MHK) determination. The class given is cell-based. As to conditions: read-out: MHK-Werte.
The subject of data set [9] is Botrytis cinerea 57. The data set is described as follows: MIC (MHK) determination. The class given is cell-based. As to conditions: read-out: MHK-Werte.
Data set [10] concerns Alternaria solani 5. Description: MIC (MHK) determination. The class given is cell-based. To be noted: read-out: MHK-Werte.
Data set [11] deals with Pyricularia oryzae 154. The data set is described as follows: microbe, parasite or virus in culture. The class given is cell-based. As to conditions: Pyricularia oryzae, 154, read-out: MHK-Werte.
In data set [12] the test system is Aspergillus niger. Description: MIC (MHK) determination. The class given is cell-based. To be noted: read-out: MHK-Werte.
Data set [13] relates to Botrytis cinerea 16. Description: MIC (MHK) determination. It counts as cell-based. To be noted: read-out: MHK-Werte.
In data set [14] the test system is Cladosporuim resinae. Description: MIC (MHK) determination. As to conditions: read-out: MHK-Werte. It counts as cell-based.
Data set [15] concerns Penicillium digitatum 135. Description: MIC (MHK) determination. The class given is cell-based. As to conditions: read-out: MHK-Werte.
Data set [16] concerns E. coli 9632. The data set is described as follows: MIC (MHK) determination. It counts as cell-based. To be noted: Escherichia coli, read-out: MHK-Werte.
The test system of data set [17] is Cercospora beticola 71. The data set is described as follows: MIC (MHK) determination. It counts as cell-based. As to conditions: read-out: MHK-Werte.

Among the data in patent EP0326922A2 (priority 1988, dated 1989) are Löslichkeit and MIC values, retold here.

Molecules are shown by their SMILES. Values after ≈ are worked out from the molar mass of the structure shown.

Regarding `COC(=O)/C=C(/C=C/C(C)C/C=C/CC/C=C/C=C\CC(OC)/C(C)=C\C=C(/C)C(=O)OC)CC(=O)OC` (stereo not drawn) [Isobongkrekinsäure-trimethylester], the Löslichkeit result in [1] is “CHCl3, CH2Cl2,MeOH, Aceton, Äthylacetat und Petroläther”.
In the case of `COC(C/C=C\C=C\CC/C=C/CC(C)/C=C/C(=C/C(=O)O)CC(=O)O)/C(C)=C\C=C(/C)C(=O)O` (stereo not drawn) [Isobongkrekinsäure, 3-Carboxymethyl-17-methoxy-6,18,21-trimethyldocosa-2E,4E,8E,12E,14Z,18Z,20E-hepta-en-1,22-disäure], the MIC in data set [2] is 15.6 µg/mL (≈ 32.1 µM); in [3], 125 µg/mL (≈ 257 µM); in [4] it was 7.8 µg/mL (≈ 16 µM); in [5], 125 µg/mL (≈ 257 µM); in data set [6] it was more than 125 µg/mL; in data set [7], more than 125 µg/mL. Also, the MIC in [8] was more than 125 µg/mL; in data set [9] it was 31.2 µg/mL (≈ 64.1 µM); in data set [10], 62.5 µg/mL (≈ 128 µM); in [11], 31.2 µg/mL (≈ 64.1 µM); in data set [12], 62.5 µg/mL (≈ 128 µM); in data set [13] it was 62.5 µg/mL (≈ 128 µM). Further, the MIC was 250 µg/mL (≈ 514 µM) in [14], 62.5 µg/mL (≈ 128 µM) in [15], more than 125 µg/mL in [16] and 15.6 µg/mL (≈ 32.1 µM) in [17]. The Löslichkeit entry in [1] is “Wäßriges Alkali, schwerlöslich in MeOH und Wasser”.
